Among the data in patent US20230114728A1 (Venatorx Pharmaceuticals, Inc., priority 2019, published 2023) are MIC values, retold here.

SMILES strings stand for the structures. In brackets after ≈: the same amount, converted by molar mass. Where only a bound is given, the exact number is not on record here.

Assay type in all cases: cell-based
Assay [1] concerns N. gonorrhoeae WHO L. In words: Liquid broth MIC in Fastidious broth. Particulars: Neisseria gonorrhoeae; N. gonorrhoeae strain WHO L; Fastidious broth; read-out: Minimum Inhibitory Concentration, N. gonorrhoeae WHO L. The method, boiled down: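 Colonies were swabbed from chocolate agar after 24 h growth and standardised by optical density at 600 nm. Compounds were serially diluted twofold in Fastidious broth, and bacteria added to give 5×10^5 CFU/mL. After about 24 h at 36 °C in 5% CO2, the lowest concentration allowing under 10% growth was taken as MIC.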

The test system of assay [2] is K. pneumoniae UMM producing SHV-5 and KPC-2. Kind of assay: Broth microdilution MIC in CAMHB. Particulars: Klebsiella pneumoniae, read-out: Minimum Inhibitory Concentration, K. pneumoniae UMM. The method, boiled down:
(§1)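 Per CLSI broth microdilution, colonies were grown 3-5 h at 37° C in cation-adjusted Mueller Hinton broth, then diluted to a starting inoculum of 2-8×10^5 CFU/mL against 2-fold serial compound dilutions. Plates were incubated 16-20 h at 37° C, and MIC was read visually as the lowest concentration with no growth.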

Assay [3] concerns P. aeruginosa (ΔmexAB-oprM). In words: Broth microdilution MIC in CAMHB. Particulars: Pseudomonas aeruginosa, read-out: Minimum Inhibitory Concentration, P. aeruginosa ΔmexAB-OprM. A digest of the protocol: as §1
Assay [4] relates to P. aeruginosa ATCC 35151. Kind of assay: Broth microdilution MIC in CAMHB. To be noted: Pseudomonas aeruginosa, ATCC35151; MHB; hyper-permeable strain; read-out: Minimum Inhibitory Concentration, P. aeruginosa ATCC 35151. The method, boiled down:
as §1

The subject of assay [5] is E. coli D22. In words: Broth microdilution MIC in CAMHB. Particulars: Escherichia coli; E. coli D22 (hyper-permeable); MHB; read-out: Minimum Inhibitory Concentration, E. coli D22. A digest of the protocol: as §1
Assay [6] has as its system E. coli ATCC 25922. In words: Broth microdilution MIC in CAMHB. Particulars: Escherichia coli, ATCC25922; E. coli ATCC 25922; MHB; read-out: Minimum Inhibitory Concentration, E. coli 25922. A digest of the protocol:
as §1

Assay [7] concerns K. pneumoniae SI-117 producing VIM-1. Kind of assay: Broth microdilution MIC in CAMHB. Particulars: Klebsiella pneumoniae, read-out: Minimum Inhibitory Concentration, K. pneumoniae SI-117. The method, boiled down: as §1
Assay [8] relates to E. coli 901C. In words: Broth microdilution MIC in CAMHB. Particulars: Escherichia coli; E. coli 901C (hyper-permeable); MHB; read-out: Minimum Inhibitory Concentration, E. coli 901C. The method, boiled down: as §1
For assay [9], the system named is E. coli AG100. Kind of assay: Broth microdilution MIC in CAMHB. To be noted: Escherichia coli; E. coli AG100 (wild-type parent); MHB; read-out: Minimum Inhibitory Concentration, E. coli AG100. A digest of the protocol:
as §1

In assay [10] the test system is A. baumannii ATCC 19606. In words: Broth microdilution MIC in CAMHB. Particulars: Acinetobacter baumannii, ATCC19606; MHB; read-out: Minimum Inhibitory Concentration, A. baumannii ATCC 19606. The method, boiled down: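 CLSI microdilution; CAMHB; inoculum 2-8×10^5 CFU/mL from 3-5 h 37° C culture; 2-fold compound series; 16-20 h, 37° C; MIC = lowest well without visible growth.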

The test system of assay [11] is K. pneumoniae 848844 producing SHV-11 and KPC-2. Kind of assay: Broth microdilution MIC in CAMHB. Particulars: Klebsiella pneumoniae, read-out: Minimum Inhibitory Concentration, K. pneumoniae 848844. A digest of the protocol:
as §1

Assay [12] has as its system E. coli AG100A. In words: Broth microdilution MIC in CAMHB. Particulars: Escherichia coli, read-out: Minimum Inhibitory Concentration, E. coli AG100A. The method, boiled down: as §1
Assay [13] concerns P. aeruginosa ATCC 27853. Kind of assay: Broth microdilution MIC in CAMHB. Particulars: Pseudomonas aeruginosa, ATCC27853; MHB; read-out: Minimum Inhibitory Concentration, P. aeruginosa ATCC 27853. The method, boiled down: as §1

`NS(=O)(=O)Nc1cccc(C(NC(=O)N2CCN(CCF)C(=O)C2=O)C(=O)N[C@H]2Cc3cccc(C(=O)O)c3OB2O)c1` (stereo partly drawn) [Example 116, (3R)-3-(2-(4-(2-fluoroethyl)-2,3-dioxopiperazine-1-carboxamido)-2-(3-(sulfamoylamino)phenyl)acetamido)-2-hydroxy-3,4-dihydro-2H-benzo[e][1,2]oxaborinine-8-carboxylic acid]: the MIC was > 64 µg/mL in [1]; 32 to 64 µg/mL (≈ 51.6 to 103 µM) in assay [2]; 8 to 16 µg/mL (≈ 12.9 to 25.8 µM) in assay [3]; 0.5 to 1 µg/mL (≈ 0.806 to 1.61 µM) in [4]; 0.5 to 1 µg/mL (≈ 0.806 to 1.61 µM) in [5]; 8 to 16 µg/mL (≈ 12.9 to 25.8 µM) in assay [6]. Also, the MIC in assay [7] was 32 to 64 µg/mL (≈ 51.6 to 103 µM); in [8] it was < 0.25 µg/mL; in [9], 8 to 16 µg/mL (≈ 12.9 to 25.8 µM); in assay [10], > 128 µg/mL; in assay [11] it was > 128 µg/mL; in assay [12] it was 2 to 4 µg/mL (≈ 3.22 to 6.45 µM). Also, the MIC in [13] is > 128 µg/mL.

Take `NCCCN1CCN(C(=O)N[C@@H](C(=O)N[C@H]2Cc3cccc(C(=O)O)c3OB2O)c2cccc(NS(N)(=O)=O)c2)C(=O)C1=O` [Example 117, (R)-3-((R)-2-(4-(3-aminopropyl)-2,3-dioxopiperazine-1-carboxamido)-2-(3-(sulfamoylamino)phenyl)acetamido)-2-hydroxy-3,4-dihydro-2H-benzo[e][1,2]oxaborinine-8-carboxylic acid]: the MIC in [1] is > 64 µg/mL; in [2], 32 to 64 µg/mL (≈ 50.7 to 101 µM); in assay [3], 2 to 4 µg/mL (≈ 3.17 to 6.33 µM); in assay [4], < 0.25 µg/mL; in [5], 2 to 4 µg/mL (≈ 3.17 to 6.33 µM); in assay [6], 32 to 64 µg/mL (≈ 50.7 to 101 µM). The MIC in [7] was in the range of 32 to 64 µg/mL (≈ 50.7 to 101 µM); in assay [8] it was 2 to 4 µg/mL (≈ 3.17 to 6.33 µM); in [9], 32 to 64 µg/mL (≈ 50.7 to 101 µM); in assay [10], 32 to 64 µg/mL (≈ 50.7 to 101 µM); in assay [11], 32 to 64 µg/mL (≈ 50.7 to 101 µM); in [12], 2 to 4 µg/mL (≈ 3.17 to 6.33 µM). Further, the MIC in assay [13] is 32 to 64 µg/mL (≈ 50.7 to 101 µM).

Consider `NCCCN1CCN(C(=O)N[C@H](C(=O)N[C@H]2Cc3cccc(C(=O)O)c3OB2O)c2cccc(NS(N)(=O)=O)c2)C(=O)C1=O` [Example 118, (R)-3-((S)-2-(4-(3-aminopropyl)-2,3-dioxopiperazine-1-carboxamido)-2-(3-(sulfamoylamino)phenyl)acetamido)-2-hydroxy-3,4-dihydro-2H-benzo[e][1,2]oxaborinine-8-carboxylic acid], for which the MIC in assay [1] was > 64 µg/mL; in [2] it was 32 to 64 µg/mL (≈ 50.7 to 101 µM); in [3] it was 8 to 16 µg/mL (≈ 12.7 to 25.3 µM); in assay [4] it was 0.5 to 1 µg/mL (≈ 0.792 to 1.58 µM); in assay [5] it was 8 to 16 µg/mL (≈ 12.7 to 25.3 µM); in assay [6], 32 to 64 µg/mL (≈ 50.7 to 101 µM). In addition, the MIC in assay [7] is > 128 µg/mL; in [8], 2 to 4 µg/mL (≈ 3.17 to 6.33 µM); in assay [9], 32 to 64 µg/mL (≈ 50.7 to 101 µM); in assay [10], > 128 µg/mL; in [11], > 128 µg/mL; in assay [12] it was 2 to 4 µg/mL (≈ 3.17 to 6.33 µM). Besides, the MIC in assay [13] is > 128 µg/mL.

Turning to `NC1(CN2CCN(C(=O)NC(C(=O)N[C@H]3Cc4cccc(C(=O)O)c4OB3O)c3cccc(NS(N)(=O)=O)c3)C(=O)C2=O)CC1` (stereo partly drawn) [Example 120, (3R)-3-(2-(4-((1-aminocyclopropyl)methyl)-2,3-dioxopiperazine-1-carboxamido)-2-(3-(sulfamoylamino)phenyl)acetamido)-2-hydroxy-3,4-dihydro-2H-benzo[e][1,2]oxaborinine-8-carboxylic acid], the MIC in assay [1] is > 64 µg/mL; in [2] it was 32 to 64 µg/mL (≈ 49.7 to 99.5 µM); in assay [3], 8 to 16 µg/mL (≈ 12.4 to 24.9 µM); in [4] it was 0.5 to 1 µg/mL (≈ 0.777 to 1.55 µM); in [5], 8 to 16 µg/mL (≈ 12.4 to 24.9 µM); in assay [6], > 128 µg/mL. For the same compound, the MIC in assay [7] is > 128 µg/mL; in assay [8], 2 to 4 µg/mL (≈ 3.11 to 6.22 µM); in assay [9], > 128 µg/mL; in [10], > 128 µg/mL; in assay [11], > 128 µg/mL; in assay [12] it was 8 to 16 µg/mL (≈ 12.4 to 24.9 µM). In assay [13], the MIC is > 128 µg/mL.
